Reference: US9873693B2 (Sunesis Pharmaceuticals, Inc., priority 2006, dated 2018)
Where two headings read alike, the source gives them in different places.

What was measured:
[1] = system: Phospho-T308 Akt; assay: Phospho-T308 Akt detection using immunoblot (western blot) in PC-3 cells; format: cell-based; conditions: for inhibition at 5 µM / inhibition at 2 µM: Homo sapiens, read-out: Percent Inhibition of phospho-Akt (308) By Western; for Reduction of Cellular Levels of Akt p308 By Western: 2 hour incubation, concentration not given in Table 2
Protocol: A Phospho-T308 Akt detection using immunoblot (western blot) analysis was performed as described below.
PC-3 prostate cells were plated in a 6 well plate in F12K media (Invitrogen, Carlsbad, Calif.) plus 10% FBS (Invitrogen) and placed in incubator overnight. The stock of compound A was a 50 mM solution in DMSO. 1000× dilutions of the compound were made in DMSO. The 1000× dilutions include, 35 mM, 25 mM, 15 mM, 10 mM, 7 mM, 5 mM, and 1 mM. 1 μl of the 1000× dilutions was added to 1 ml F12K media without serum for final concentrations of […]. 1 μl of DMSO was added to 1 ml media with no serum for a control. The 1 ml DMSO or compound plus media was then added to the cells. Following a 2 hour incubation at 37° C., cells were harvested and washed in PBS and subjected to centrifugation at 3,300 rpm for 5 minutes. Cells were lysed in 100 μl of Bio Rad Bioplex buffer containing protease inhibitors (BioRad, Hercules, Calif.) for 30 minutes on ice followed by centrifugation at 13,000 rpm for 5 minutes. The protein content of the supernatant was assayed using DC Protein Assay (BioRad). 25 μl of protein was added to 4× sample buffer (Invitrogen) and sample reducer (Invitrogen) and run on a 4-12% NuPage gel (Invitrogen). Proteins were then transferred to nitrocellulose (Invitrogen). The membrane was blocked in Tris-buffered saline (Sigma, St. Louis, Mo.) plus 0.1% Tween (Sigma) (T-TBS) plus 5% blotting grade milk (BioRad) for 60 minutes. Membranes were then incubated in T-TBS plus 5% BSA (Sigma) plus 1:1000 of anti-phospho akt (Thr 308) (Cell Signaling Technology, Beverly, Mass.) overnight at 4° C. Membranes were washed in T-TBS then incubated in 1:2000 of anti-rabbit-HRP (Cell Signaling) in TTBS plus 5% milk. Membranes were washed again and proteins were visualized with Super Signal West Pico (Pierce, Rockford, Ill.) and using Kodak BioMax MR film (Kodak, Rochester, N.Y.).
Phospho-akt 308 protein bands on the film were quantified using densitometry. An Alpha Imager (Alpha Innotech Corp, San Leandro, Calif.) using AlphaEase FC software version 4.1.0 (Alpha Innotech Corp.) was used to quantitate protein bands. Briefly, a rectangle of equal size was placed around each protein band as well as a background spot on the film. The densitometry values (IDV=Integrated Density Value) obtained for the background spot was then subtracted from the values obtained for the protein bands. These values were used to obtain an EC50 value using non-linear regression analysis in GraphPad Prism Version 4.00 (Graph Pad Prism, San Diego, Calif.). Percent decrease in expression of phosphoh-akt 308 were also measured specifically at 2 μM and 5 μM levels of inhibitor.

[2] = molecular target: phosphorylated PDK1 (Homo sapiens (Human), UniProt O15530); assay: PDK1 kinase assay (coupled PDK1/AKT/FAM-crosstide, IMAP); format: biochemical; conditions: 0.5 nM phosphorylated PDK1, 24 μM ATP; read-out: Inhibition of phospo-PDK1 in vitro IC50
phosphorylated PDK1, sequence (O15530 51-360): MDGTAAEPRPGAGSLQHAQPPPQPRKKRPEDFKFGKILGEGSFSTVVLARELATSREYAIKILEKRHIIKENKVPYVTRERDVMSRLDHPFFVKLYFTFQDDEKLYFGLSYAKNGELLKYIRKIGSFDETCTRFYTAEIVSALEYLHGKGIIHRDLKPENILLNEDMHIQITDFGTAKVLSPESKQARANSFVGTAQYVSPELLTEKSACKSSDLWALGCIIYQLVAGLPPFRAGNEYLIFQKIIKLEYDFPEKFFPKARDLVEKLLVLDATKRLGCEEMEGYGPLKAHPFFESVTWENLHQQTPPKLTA

[3] = system: phospho-akt (Thr308); assay: phospho-akt (Thr308) MSD ELISA in PC-3 cells; format: cell-based; conditions: Homo sapiens; for inhibition at 1 µM / inhibition at 10 µM: read-out: Percent Inhibition of phospho-Akt (308) By MSD ELISA; for EC50: PC-3, 2 h
Method in brief: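 Read-out is MSD electrochemiluminescence after lysate capture overnight at 4 degrees and 1 hr RT detection-antibody step. Before lysis, overnight-plated PC-3 cells received three-fold serial dilutions of inhibitor in serum-free medium, with DMSO-only high controls.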

[4] = molecular target: dephosphorylated PDK1 (Homo sapiens (Human), UniProt O15530); assay: PDK1 kinase assay (coupled PDK1/AKT/FAM-crosstide, IMAP); format: biochemical; conditions: 25 nM un-phosphorylated PDK1, 24 μM ATP; read-out: Inhibition of dephospo-PDK1 in vitro IC50
dephosphorylated PDK1, sequence (O15530 51-360): as above
Method in brief: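 The FAM-crosstide phosphorylation readout was IMAP polarization (ex 485/em 530 nm, 2 h binding), with 4-parameter fits of ΔmP data. The reaction ran 30 min at 25 °C with 24 μM ATP, and contained 25 nM phosphatase-treated PDK1 (aa 51–360) plus 30 nM unphosphorylated AKT2-PIFtide and 100 nM substrate. Buffer was 10 mM Tris pH 7.2, 10 mM MgCl2, 0.01% Triton X-100 and 1 mM DTT.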

[5] = read-out: Reduction of Cellular Levels of Akt p308 By MSD ELISA (EC50 μM)
[6] = PC-3 cells, 2 hours, no serum, read-out: Inhibition of P308 Akt in cells using MSD EC50
[7] = PC-3 cells, 2 hours, no serum, read-out: Reduction of Cellular Levels of Akt p308 By MSD ELISA (EC50 μM)
[8] = read-out: Inhibition of P308 Akt in cells using MSD EC50

SMILES	inhibition at 5 µM [1]	IC50 [2]	Reduction of Cellular Levels of Akt p308 By Western [1]	inhibition at 1 µM ([3]; PC-3 cells)	inhibition at 10 µM ([3]; PC-3 cells)	inhibition at 2 µM [1]	EC50 [3, 5]	EC50 [3, 6]	EC50 [3, 7]	EC50 [3, 8]	IC50 [4]
CC(=O)NC[C@@H](NC(=O)c1cccn(Cc2ccc(F)c(F)c2)c1=O)c1nc(-c2c[nH]c3ncccc23)cs1 [Cpd 136]	25 to 75%	–	–	–	–	–	–	–	–	–	–
CNC(=O)C[C@@H](NC(=O)c1cccn(Cc2ccc(F)c(F)c2)c1=O)c1nnc(-c2c[nH]c3ncccc23)o1 [Cpd 299]	25 to 75%	< 500 nM	bb (inhibition of from 25% to 75%)	< 25%	< 25%	–	–	–	–	–	–
O=C(O)c1cnc2[nH]cc(-c3ccc(CNC(=O)c4cccn(Cc5ccc(F)c(F)c5)c4=O)s3)c2c1 [Cpd 21]	–	< 500 nM	b (inhibition of less 25%)	–	–	< 25%	> 5 µM	–	–	–	–
O=C(NCc1ccc(-c2c[nH]c3ncc(F)cc23)s1)c1cccn(Cc2ccc(F)c(F)c2)c1=O [Cpd 11]	> 75%	< 500 nM	bbb (inhibition of more than 75%)	–	–	–	–	< 1 µM	< 1 µM	–	–
O=C(NCc1ncc(-c2c[nH]c3ncccc23)s1)c1cccn(Cc2ccc(F)c(F)c2)c1=O [Cpd 132]	> 75%	< 500 nM	bbb (inhibition of more than 75%)	25 to 75%	> 75%	–	–	< 1 µM	–	–	–
NC(=O)C[C@@H](NC(=O)c1cccn(Cc2ccc(F)c(F)c2)c1=O)c1ccc(-c2c[nH]c3ncccc23)s1 [Cpd 19]	–	< 500 nM	bbb (inhibition of more than 75%)	–	–	> 75%	1 to 5 µM	–	–	1 to 5 µM	–
O=C(NCc1ccc(-c2c[nH]c3ncc(CO)cc23)s1)c1cccn(Cc2ccc(F)c(F)c2)c1=O [Cpd 12]	–	< 500 nM	bb (inhibition of from 25% to 75%)	25 to 75%	> 75%	25 to 75%	–	< 1 µM	–	–	–
O=C(NCc1cccc(-c2ccc3nccn3c2)c1)c1cccn(Cc2ccc(F)c(F)c2)c1=O [Cpd 336]	> 75%	–	–	25 to 75%	> 75%	–	–	–	–	–	–
CNC(=O)C[C@@H](NC(=O)c1cccn(Cc2ccc(F)c(F)c2)c1=O)c1ccc(-c2c[nH]c3ncccc23)s1 [Cpd 18]	–	< 500 nM	bb (inhibition of from 25% to 75%)	–	–	25 to 75%	–	1 to 5 µM	1 to 5 µM	–	–
O=C(c1cccn(Cc2ccc(F)c(F)c2)c1=O)N1CCc2ccc(-c3c[nH]c4ncccc34)cc2C1 [Cpd 232]	–	500 to 10000 nM	–	–	–	–	–	> 5 µM	–	–	500 to 10000 nM
O=C(NCCOc1ccc2[nH]c(=O)[nH]c2c1)c1cccn(Cc2ccc(F)c(F)c2)c1=O [Cpd 113]	–	< 500 nM	–	–	–	–	–	> 5 µM	–	–	< 500 nM
COC(=O)c1cc(-c2c[nH]c3ncccc23)cc(CNC(=O)c2cccn(Cc3ccc(F)c(F)c3)c2=O)n1 [Cpd 175]	–	< 500 nM	–	–	–	–	–	< 1 µM	–	–	< 500 nM
C[C@@H](c1ccc(F)cc1)n1cccc(C(=O)NCc2noc(-c3c[nH]c4ncccc34)n2)c1=O [Cpd 311]	–	< 500 nM	–	< 25%	> 75%	–	–	–	–	–	< 500 nM
CCC[C@H](COc1ccc2[nH]c(=O)[nH]c2c1)NC(=O)c1cccn(Cc2ccc(F)c(F)c2)c1=O [Cpd 322]	–	< 500 nM	–	–	–	–	–	1 to 5 µM	1 to 5 µM	–	< 500 nM
O=C(NCc1cccc(-c2c[nH]c3cnccc23)c1)c1cccn(Cc2ccc(F)c(F)c2)c1=O [Cpd 242]	–	500 to 10000 nM	–	< 25%	> 75%	–	–	–	–	–	< 500 nM
CC(C)n1c(=O)[nH]c2cc(OCCNC(=O)c3cccn(Cc4ccc(F)c(F)c4)c3=O)ccc21 [Cpd 280]	–	< 500 nM	–	25 to 75%	25 to 75%	–	–	> 5 µM	–	–	< 500 nM
CC1(C)C(=O)Nc2cc(/C=C/CNC(=O)c3cccn(Cc4cc(F)c(F)c(F)c4)c3=O)ccc21 [Cpd 206]	–	500 to 10000 nM	–	–	–	–	–	1 to 5 µM	–	–	< 500 nM
O=C(N[C@@H](COc1ccc2[nH]c(=O)[nH]c2c1)Cc1ccccc1)c1cccn(Cc2ccc(F)c(F)c2)c1=O [Cpd 321]	–	< 500 nM	–	< 25%	> 75%	–	–	> 5 µM	–	–	< 500 nM
O=C(NCc1ccc(-c2c[nH]c3ncc(Cl)cc23)s1)c1cccn(Cc2ccc(F)c(F)c2)c1=O [Cpd 23]	–	< 500 nM	–	–	–	–	–	> 5 µM	> 5 µM	–	< 500 nM
O=C(NCCOc1cc2[nH]c(=O)[nH]c2cn1)c1cccn(Cc2ccc(F)c(F)c2)c1=O [Cpd 279]	–	< 500 nM	–	–	–	–	–	–	> 5 µM	–	< 500 nM
Cc1ccc(Cn2cccc(C(=O)NCc3noc(-c4c[nH]c5ncccc45)n3)c2=O)cc1Cl [Cpd 317]	–	< 500 nM	–	25 to 75%	> 75%	–	–	> 5 µM	–	–	< 500 nM
O=C(NCc1cccc(-c2ccc3[nH]ncc3c2)c1)c1cccn(Cc2ccc(F)c(F)c2)c1=O [Cpd 213]	–	< 500 nM	–	–	–	–	–	–	1 to 5 µM	–	< 500 nM
O=C1Cc2ccc(/C=C/CNC(=O)c3cc(Cl)cn(Cc4cc(F)c(F)c(F)c4)c3=O)cc2N1 [Cpd 193]	–	< 500 nM	–	–	–	–	–	–	–	> 5 µM	< 500 nM
